Converted amounts (≈) assume the structure as drawn. The source made the active and inactive calls. The calls are words filed in the database; no cut-off is given here.
Columns and labels:
Pseudomonas aeruginosa [1] = test: Potency index, ratio of clinafloxacin MIC to compound MIC for Pseudomonas aeruginosa ATCC27853; format: functional
Saccharomyces cerevisiae = test: Antifungal activity against Saccharomyces cerevisiae ATCC9763 assessed as growth inhibition incubated at 35 degC for 24 hrs by micro broth dilution method; format: functional; conditions: ATCC9763, 24 h
Staphylococcus aureus [2] = test: Antibacterial activity against methicillin resistant Staphylococcus aureus N315 assessed as growth inhibition incubated at 37 degC for 24 hrs by micro broth dilution method; format: functional; conditions: N315, 24 h
Cyberlindnera jadinii = test: Antifungal activity against Candida utilis ATCC9950 assessed as growth inhibition incubated at 35 degC for 24 hrs by micro broth dilution method; format: functional; conditions: Williopsis jadinii, ATCC9950, 24 h
Staphylococcus aureus [3] = test: Binding affinity to methicillin-resistant Staphylococcus aureus DNA assessed as induction of DNA intercalation by measuring as 1:1 compound-DNA complex formation in presence of Cu2+ ions by fluorescence spectroscopy
[4] = Antibacterial activity against Eberthella typhosa ATCC14028 assessed as growth inhibition incubated at 37 degC for 24 hrs by micro broth dilution method; format: functional; conditions: ATCC14028, 24 h
Bacillus subtilis = test: Antibacterial activity against Bacillus subtilis ATCC6633 assessed as growth inhibition incubated at 37 degC for 24 hrs by micro broth dilution method; format: functional; conditions: ATCC6633, 24 h
Staphylococcus aureus [5] = test: Antibacterial activity against Staphylococcus aureus ATCC25923 assessed as growth inhibition incubated at 37 degC for 24 hrs by micro broth dilution method; format: functional; conditions: ATCC25923, 24 h
Staphylococcus aureus [6] = test: Binding affinity to methicillin-resistant Staphylococcus aureus DNA assessed as induction of DNA intercalation in presence of potassium iodide by fluorescence spectroscopy based Stern-Volmer plot
Staphylococcus aureus [7] = test: Binding affinity to methicillin-resistant Staphylococcus aureus DNA assessed as induction of DNA intercalation by UV-visible spectroscopy
Escherichia coli = test: Antibacterial activity against Escherichia coli JM109 assessed as growth inhibition incubated at 37 degC for 24 hrs by micro broth dilution method; format: functional; conditions: JM109, 24 h
[8] = Antifungal activity against Candida mycoderma ATCC9888 assessed as growth inhibition incubated at 35 degC for 24 hrs by micro broth dilution method; format: functional; conditions: Kregervanrija fluxuum
Candida albicans = test: Antifungal activity against Candida albicans ATCC10231 assessed as growth inhibition incubated at 35 degC for 24 hrs by micro broth dilution method; format: functional; conditions: ATCC10231, 24 h
[9] = Antibacterial activity against Bacillus proteus ATCC13315 assessed as growth inhibition incubated at 37 degC for 24 hrs by micro broth dilution method; format: functional; conditions: ATCC13315, 24 h
Aspergillus flavus = test: Antifungal activity against Aspergillus flavus ATCC204304 assessed as growth inhibition incubated at 35 degC for 24 hrs by micro broth dilution method; format: functional; conditions: ATCC204304, 24 h
Pseudomonas aeruginosa [10] = test: Antibacterial activity against Pseudomonas aeruginosa ATCC27853 assessed as growth inhibition incubated at 37 degC for 24 hrs by micro broth dilution method; format: functional; conditions: ATCC27853, 24 h
Micrococcus luteus = test: Antibacterial activity against Micrococcus luteus ATCC4698 assessed as growth inhibition incubated at 37 degC for 24 hrs by micro broth dilution method; format: functional; conditions: ATCC4698, 24 h
[11] = Binding affinity to Cu2+ ion assessed as 1:1 compound-Cu2+ complex formation by fluorescence spectroscopy
Pseudomonas aeruginosa [12] = test: Potency index, ratio of chloramphenicol MIC to compound MIC for Pseudomonas aeruginosa ATCC27853; format: functional

Compound | Ratio (Pseudomonas aeruginosa [1]) | MIC80 (Saccharomyces cerevisiae) [µg/mL] | MIC (Staphylococcus aureus [2]) [µg/mL] | MIC80 (Cyberlindnera jadinii) [µg/mL] | Activity (Staphylococcus aureus [3]) | MIC [4] [µg/mL] | MIC (Bacillus subtilis) [µg/mL] | MIC (Staphylococcus aureus [5]) [µg/mL] | Activity (Staphylococcus aureus [6]) | Activity (Staphylococcus aureus [7]) | MIC (Escherichia coli) [µg/mL] | MIC80 [8] [µg/mL] | MIC80 (Candida albicans) [µg/mL] | MIC [9] [µg/mL] | MIC80 (Aspergillus flavus) [µg/mL] | MIC (Pseudomonas aeruginosa [10]) [µg/mL] | MIC (Micrococcus luteus) [µg/mL] | Activity [11] | Ratio (Pseudomonas aeruginosa [12])
Cn1ccnc1SCC(O)CNC1CCN(c2c(F)cc3c(=O)c(C(=O)O)cn(C4CC4)c3c2Cl)C1 (stereo not drawn) | 4 | 16 (≈ 29.8 µM) | 0.25 (≈ 0.466 µM) | 32 (≈ 59.7 µM) | Active | 0.5 (≈ 0.933 µM) | 0.5 (≈ 0.933 µM) | 0.5 (≈ 0.933 µM) | Active | Dose-dependent effect | 1 (≈ 1.87 µM) | 1 (≈ 1.87 µM) | 0.5 (≈ 0.933 µM) | 0.5 (≈ 0.933 µM) | 32 (≈ 59.7 µM) | 0.25 (≈ 0.466 µM) | 0.5 (≈ 0.933 µM) | Active | 64
O=C(O)c1cn(C2CC2)c2cc(N3CCN(CC(O)CSc4ncn(Cc5ccc(Cl)c(Cl)c5)n4)CC3)c(F)cc2c1=O (stereo not drawn) |  | 32 (≈ 49.4 µM) | 1 (≈ 1.54 µM) | 2 (≈ 3.09 µM) |  | 0.5 (≈ 0.772 µM) | 0.5 (≈ 0.772 µM) | 0.5 (≈ 0.772 µM) |  |  | 1 (≈ 1.54 µM) | 8 (≈ 12.4 µM) | 16 (≈ 24.7 µM) | 0.5 (≈ 0.772 µM) | 16 (≈ 24.7 µM) | 2 (≈ 3.09 µM) | 1 (≈ 1.54 µM) |  | 
CCn1cc(C(=O)O)c(=O)c2cc(F)c(N3CCN(CC(O)CSc4nnnn4C)CC3)cc21 (stereo not drawn) |  | 128 (≈ 260 µM) | 128 (≈ 260 µM) | 64 (≈ 130 µM) |  | 32 (≈ 65.1 µM) | 32 (≈ 65.1 µM) | 128 (≈ 260 µM) |  |  | 8 (≈ 16.3 µM) | 64 (≈ 130 µM) | 32 (≈ 65.1 µM) | 128 (≈ 260 µM) | 64 (≈ 130 µM) | 128 (≈ 260 µM) | 64 (≈ 130 µM) |  | 
CCn1cc(C(=O)O)c(=O)c2cc(F)c(N3CCN(CC(O)CSc4ncn(Cc5ccc(Cl)c(Cl)c5)n4)CC3)cc21 (stereo not drawn) |  | 32 (≈ 50.4 µM) | 8 (≈ 12.6 µM) | 128 (≈ 201 µM) |  | 64 (≈ 101 µM) | 128 (≈ 201 µM) | 4 (≈ 6.29 µM) |  |  | 16 (≈ 25.2 µM) | 128 (≈ 201 µM) | 64 (≈ 101 µM) | 8 (≈ 12.6 µM) | 16 (≈ 25.2 µM) | 64 (≈ 101 µM) | 32 (≈ 50.4 µM) |  | 
